Measurements published in US10582709B2, “Butyrolactones as herbicides” (FMC Corporation, priority 2015, dated 2020).

Assays:
Format in all cases: in vivo
[1] = system: foxtail, giant (giant foxtail, Setaria faberii); assay: Test A postemergence, giant foxtail; conditions: visual rating after approx. 10 d, 0 to 100 scale, 0 no effect, 100 complete control
Method in brief: (§1)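 Visual injury rating on a 0–100 scale (0 = no effect, 100 = complete control) versus untreated controls, ~10 d after treatment in greenhouse. Preemergence: directed soil spray over seeded loam/sand. Postemergence: foliar spray at one- to two-leaf stage, 2–10 cm tall.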

[2] = system: sedge, umbrella (small-flower umbrella sedge, Cyperus difformis); assay: Test B flooded paddy test, umbrella sedge; conditions: 500 g ai/ha; applied to paddy water at 2-leaf stage; 13 to 15 d; scale 0 no effect to 100 complete control
Method in brief: (§2)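 Plants at the 2-leaf stage were flooded to 3 cm above soil, and test compounds were applied directly into the paddy water, which was held at that depth throughout. After 13 to 15 d in a greenhouse, injury was rated visually against untreated controls on a 0–100 scale (0 no effect, 100 complete control).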

[3] = system: foxtail, giant (giant foxtail, Setaria faberii); assay: Test A preemergence, giant foxtail; conditions: visual rating after approx. 10 d, 0 to 100 scale, 0 no effect, 100 complete control
Method in brief: as §1

[4] = system: barnyardgrass (Echinochloa crus-galli); assay: Test A preemergence, barnyardgrass; conditions: visual rating after approx. 10 d, 0 to 100 scale, 0 no effect, 100 complete control
Method in brief: as §1

[5] = system: pigweed (Amaranthus retroflexus); assay: Test A preemergence, pigweed; conditions: visual rating after approx. 10 d, 0 to 100 scale, 0 no effect, 100 complete control
Method in brief: as §1

[6] = system: ragweed (common ragweed, Ambrosia elatior); assay: Test A postemergence, ragweed; conditions: visual rating after approx. 10 d, 0 to 100 scale, 0 no effect, 100 complete control
Method in brief: as §1

rice (Oryza sativa) = assay: Test B flooded paddy test, rice; conditions: 500 g ai/ha; applied to paddy water at 2-leaf stage; 13 to 15 d; scale 0 no effect to 100 complete control
Method in brief: as §2

kochia (Kochia scoparia) [7] = assay: Test A postemergence, kochia; conditions: visual rating after approx. 10 d, 0 to 100 scale, 0 no effect, 100 complete control
Method in brief: as §1

[8] = system: ryegrass, Italian (Italian ryegrass, Lolium multiflorum); assay: Test A preemergence, Italian ryegrass; conditions: visual rating after approx. 10 d, 0 to 100 scale, 0 no effect, 100 complete control
Method in brief: as §1

[9] = system: barnyardgrass (Echinochloa crus-galli); assay: Test B flooded paddy test, barnyardgrass; conditions: 500 g ai/ha; applied to paddy water at 2-leaf stage; 13 to 15 d; scale 0 no effect to 100 complete control
Method in brief: as §2

[10] = system: ducksalad (Heteranthera limosa); assay: Test B flooded paddy test, ducksalad; conditions: 500 g ai/ha; applied to paddy water at 2-leaf stage; 13 to 15 d; scale 0 no effect to 100 complete control
Method in brief: as §2

[11] = system: wheat (Triticum aestivum); assay: Test A postemergence, wheat; conditions: visual rating after approx. 10 d, 0 to 100 scale, 0 no effect, 100 complete control
Method in brief: as §1

[12] = system: barnyardgrass (Echinochloa crus-galli); assay: Test A postemergence, barnyardgrass; conditions: visual rating after approx. 10 d, 0 to 100 scale, 0 no effect, 100 complete control
Method in brief: as §1

[13] = system: pigweed (Amaranthus retroflexus); assay: Test A postemergence, pigweed; conditions: visual rating after approx. 10 d, 0 to 100 scale, 0 no effect, 100 complete control
Method in brief: as §1

corn (Zea mays) [14] = assay: Test A postemergence, corn; conditions: visual rating after approx. 10 d, 0 to 100 scale, 0 no effect, 100 complete control
Method in brief: as §1

kochia (Kochia scoparia) [15] = assay: Test A preemergence, kochia; conditions: visual rating after approx. 10 d, 0 to 100 scale, 0 no effect, 100 complete control
Method in brief: as §1

[16] = system: ryegrass, Italian (Italian ryegrass, Lolium multiflorum); assay: Test A postemergence, Italian ryegrass; conditions: visual rating after approx. 10 d, 0 to 100 scale, 0 no effect, 100 complete control
Method in brief: as §1

[17] = system: galium (catchweed bedstraw, Galium aparine); assay: Test A postemergence, galium; conditions: visual rating after approx. 10 d, 0 to 100 scale, 0 no effect, 100 complete control
Method in brief: as §1

[18] = system: blackgrass (Alopecurus myosuroides); assay: Test A postemergence, blackgrass; conditions: visual rating after approx. 10 d, 0 to 100 scale, 0 no effect, 100 complete control
Method in brief: as §1

[19] = system: ragweed (common ragweed, Ambrosia elatior); assay: Test A preemergence, ragweed; conditions: visual rating after approx. 10 d, 0 to 100 scale, 0 no effect, 100 complete control
Method in brief: as §1

[20] = system: morningglory (Ipomoea spp.); assay: Test A preemergence, morningglory; conditions: 1000 g ai/ha, visual rating after approx. 10 d, 0 to 100 scale, 0 no effect, 100 complete control
Description: (§3) Seeds of plant species selected from barnyardgrass (Echinochloa crus-galli), crabgrass (large crabgrass, Digitaria sanguinalis), kochia (Kochia scoparia), ragweed (common ragweed, Ambrosia elatior), morningglory (Ipomoea spp.), velvetleaf (Abutilon theophrasti), ryegrass, Italian (Italian ryegrass, Lolium multiflorum), foxtail, giant (giant foxtail, Setaria faberii), wheat (Triticum aestivum), corn (Zea mays), and pigweed (Amaranthus retroflexus), were planted into a blend of loam soil and sand and treated preemergence with a directed soil spray using test chemicals formulated in a non-phytotoxic solvent mixture which included a surfactant. At the same time, plants selected from these crop and weed species and also blackgrass (Alopecurus myosuroides), and galium (catchweed bedstraw, Galium aparine), were planted in pots containing the same blend of loam soil and sand and treated with postemergence applications of test chemicals formulated in the same manner. Plants ranged in height from 2 to 10 cm and were in the one- to two-leaf stage for the postemergence treatment. Treated plants and untreated controls were maintained in a greenhouse for approximately 10 d, after which time all treated plants were compared to untreated controls and visually evaluated for injury. Plant response ratings, summarized in Table A, are based on a 0 to 100 scale where 0 is no effect and 100 is complete control. A dash (-) response means no test result.

corn (Zea mays) [21] = assay: Test A preemergence, corn; conditions: 1000 g ai/ha, visual rating after approx. 10 d, 0 to 100 scale, 0 no effect, 100 complete control
Description: as §3

[22] = system: wheat (Triticum aestivum); assay: Test A preemergence, wheat; conditions: 1000 g ai/ha, visual rating after approx. 10 d, 0 to 100 scale, 0 no effect, 100 complete control
Description: as §3

[23] = system: morningglory (Ipomoea spp.); assay: Test A postemergence, morningglory; conditions: 1000 g ai/ha, visual rating after approx. 10 d, 0 to 100 scale, 0 no effect, 100 complete control
Description: as §3

[24] = system: velvetleaf (Abutilon theophrasti); assay: Test A preemergence, velvetleaf; conditions: 1000 g ai/ha, visual rating after approx. 10 d, 0 to 100 scale, 0 no effect, 100 complete control
Description: as §3

[25] = system: velvetleaf (Abutilon theophrasti); assay: Test A postemergence, velvetleaf; conditions: 1000 g ai/ha, visual rating after approx. 10 d, 0 to 100 scale, 0 no effect, 100 complete control
Description: as §3

[26] = system: crabgrass (large crabgrass, Digitaria sanguinalis); assay: Test A postemergence, crabgrass; conditions: 1000 g ai/ha, visual rating after approx. 10 d, 0 to 100 scale, 0 no effect, 100 complete control
Description: as §3

[27] = system: crabgrass (large crabgrass, Digitaria sanguinalis); assay: Test A preemergence, crabgrass; conditions: 1000 g ai/ha, visual rating after approx. 10 d, 0 to 100 scale, 0 no effect, 100 complete control
Description: as §3

O=C(Nc1cccc(F)c1C(F)(F)F)C1C(=O)OCC1c1cccc(C(F)(F)F)c1 (racemic) [Compound 13]
Plant response rating, Foxtail, Giant ([1]; 125 g ai/ha): 20
Plant response rating, Foxtail, Giant ([1]; 500 g ai/ha): 40
Plant response rating, Flood, Sedge, Umbrella [2]: 0
Plant response rating, Foxtail, Giant ([3]; 125 g ai/ha): 40
Plant response rating, Foxtail, Giant ([3]; 500 g ai/ha): 70
Plant response rating, Barnyardgrass ([4]; 125 g ai/ha): 0
Plant response rating, Barnyardgrass ([4]; 500 g ai/ha): 0
Plant response rating, Pigweed ([5]; 125 g ai/ha): 0
Plant response rating, Pigweed ([5]; 500 g ai/ha): 0
Plant response rating, Ragweed ([6]; 125 g ai/ha): 0
Plant response rating, Ragweed ([6]; 500 g ai/ha): 0
Plant response rating, Flood, Rice (rice (Oryza sativa)): 0
Plant response rating, Kochia (kochia (Kochia scoparia) [7]; 125 g ai/ha): 0
Plant response rating, Kochia (kochia (Kochia scoparia) [7]; 500 g ai/ha): 0
Plant response rating, Ryegrass, Italian ([8]; 125 g ai/ha): 0
Plant response rating, Ryegrass, Italian ([8]; 500 g ai/ha): 0
Plant response rating, Flood, Barnyardgrass [9]: 0
Plant response rating, Flood, Ducksalad [10]: 0
Plant response rating, Wheat ([11]; 125 g ai/ha): 0
Plant response rating, Wheat ([11]; 500 g ai/ha): 0
Plant response rating, Barnyardgrass ([12]; 125 g ai/ha): 0
Plant response rating, Barnyardgrass ([12]; 500 g ai/ha): 0
Plant response rating, Pigweed ([13]; 125 g ai/ha): 0
Plant response rating, Pigweed ([13]; 500 g ai/ha): 0
Plant response rating, Corn (corn (Zea mays) [14]; 125 g ai/ha): 0
Plant response rating, Corn (corn (Zea mays) [14]; 500 g ai/ha): 0
Plant response rating, Kochia (kochia (Kochia scoparia) [15]; 125 g ai/ha): 0
Plant response rating, Kochia (kochia (Kochia scoparia) [15]; 500 g ai/ha): 0
Plant response rating, Ryegrass, Italian ([16]; 125 g ai/ha): 0
Plant response rating, Ryegrass, Italian ([16]; 500 g ai/ha): 0
Plant response rating, Galium ([17]; 125 g ai/ha): 0
Plant response rating, Galium ([17]; 500 g ai/ha): 0
Plant response rating, Blackgrass ([18]; 125 g ai/ha): 0
Plant response rating, Blackgrass ([18]; 500 g ai/ha): 0
Plant response rating, Ragweed ([19]; 125 g ai/ha): 0
Plant response rating, Ragweed ([19]; 500 g ai/ha): 0

O=C(Nc1ccccc1F)C1C(=O)OCC1c1ccc(F)c(C(F)(F)F)c1 (racemic) [Compound 16]
Plant response rating, Foxtail, Giant ([1]; 125 g ai/ha): 20
Plant response rating, Foxtail, Giant ([1]; 500 g ai/ha): 40
Plant response rating, Flood, Sedge, Umbrella [2]: 0
Plant response rating, Foxtail, Giant ([3]; 125 g ai/ha): 50
Plant response rating, Foxtail, Giant ([3]; 500 g ai/ha): 80
Plant response rating, Barnyardgrass ([4]; 125 g ai/ha): 30
Plant response rating, Barnyardgrass ([4]; 500 g ai/ha): 60
Plant response rating, Pigweed ([5]; 125 g ai/ha): 0
Plant response rating, Pigweed ([5]; 500 g ai/ha): 0
Plant response rating, Ragweed ([6]; 125 g ai/ha): 0
Plant response rating, Ragweed ([6]; 500 g ai/ha): 0
Plant response rating, Flood, Rice (rice (Oryza sativa)): 0
Plant response rating, Kochia (kochia (Kochia scoparia) [7]; 125 g ai/ha): 0
Plant response rating, Kochia (kochia (Kochia scoparia) [7]; 500 g ai/ha): 0
Plant response rating, Ryegrass, Italian ([8]; 125 g ai/ha): 0
Plant response rating, Ryegrass, Italian ([8]; 500 g ai/ha): 0
Plant response rating, Flood, Barnyardgrass [9]: 0
Plant response rating, Flood, Ducksalad [10]: 0
Plant response rating, Wheat ([11]; 125 g ai/ha): 0
Plant response rating, Wheat ([11]; 500 g ai/ha): 0
Plant response rating, Barnyardgrass ([12]; 125 g ai/ha): 20
Plant response rating, Barnyardgrass ([12]; 500 g ai/ha): 50
Plant response rating, Pigweed ([13]; 125 g ai/ha): 0
Plant response rating, Pigweed ([13]; 500 g ai/ha): 0
Plant response rating, Corn (corn (Zea mays) [14]; 125 g ai/ha): 0
Plant response rating, Corn (corn (Zea mays) [14]; 500 g ai/ha): 0
Plant response rating, Kochia (kochia (Kochia scoparia) [15]; 125 g ai/ha): 0
Plant response rating, Kochia (kochia (Kochia scoparia) [15]; 500 g ai/ha): 0
Plant response rating, Ryegrass, Italian ([16]; 125 g ai/ha): 0
Plant response rating, Ryegrass, Italian ([16]; 500 g ai/ha): 0
Plant response rating, Galium ([17]; 125 g ai/ha): 0
Plant response rating, Galium ([17]; 500 g ai/ha): 0
Plant response rating, Blackgrass ([18]; 125 g ai/ha): 0
Plant response rating, Blackgrass ([18]; 500 g ai/ha): 0
Plant response rating, Ragweed ([19]; 125 g ai/ha): 0
Plant response rating, Ragweed ([19]; 500 g ai/ha): 0

O=C(Nc1ccccc1Cl)C1C(=O)OCC1c1ccc(F)cc1 (racemic) [Compound 1]
Plant response rating, Morningglory [20]: 0
Plant response rating, Foxtail, Giant ([1]; 1000 g ai/ha): 40
Plant response rating, Corn (corn (Zea mays) [21]): 0
Plant response rating, Foxtail, Giant ([3]; 1000 g ai/ha): 40
Plant response rating, Wheat [22]: 0
Plant response rating, Barnyardgrass ([4]; 1000 g ai/ha): 0
Plant response rating, Morningglory [23]: 0
Plant response rating, Pigweed ([5]; 1000 g ai/ha): 0
Plant response rating, Velvetleaf [24]: 0
Plant response rating, Velvetleaf [25]: 0
Plant response rating, Wheat ([11]; 1000 g ai/ha): 0
Plant response rating, Barnyardgrass ([12]; 1000 g ai/ha): 20
Plant response rating, Pigweed ([13]; 1000 g ai/ha): 20
Plant response rating, Corn (corn (Zea mays) [14]; 1000 g ai/ha): 0
Plant response rating, Crabgrass [26]: 60
Plant response rating, Crabgrass [27]: 70
